Common to all, as to assay type: cell-based
Test [1] has as its system pAKT (p-Akt 1/2/3 (Ser473)) in MCF-7 cells. The test is described as follows: AlphaLISA Ultra pAKT assay. Summed up:
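AlphaLISA read-out (2 h acceptor-bead, then 2 h donor-bead incubation) on thawed lysates of MCF-7 cells exposed to compounds for 2 h in 0.5% DMSO. Cells had been plated 20-24 h and given fresh medium 2 h before dosing.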
On the technique in general: Alpha assays give light when donor and acceptor beads are brought close together.

Test [2] relates to pS6K1 (p-p70 S6 Kinase (Thr389)) in MCF-7 cells. The test is described as follows: AlphaLISA Ultra pS6K1 assay. The conditions noted are these: Homo sapiens, MCF7, 2 h, 2 hours compound incubation. Summed up: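 MCF-7 cells seeded 20–24 h, medium refreshed 2 h, then treated 2 h with compound (0.5% DMSO final). Lysates probed for Thr389-phosphorylated p70 S6K by AlphaLISA Ultra, 2 h acceptor then 2 h donor bead incubation, read on a multimode reader.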

The subject of test [3] is MCF-7 cells. Kind of test: Radioactive glucose uptake in MCF-7 cells. The following applies: Homo sapiens, MCF7, 3H-2DG uptake. The protocol: Example 157: Radioactive Glucose Uptake in MCF-7 Cells
Assay Protocol • 1. Seed approximately 12,000 MCF-7 cells cultured without insulin per well in 96-well plates (BIOCOAT, #356690) and let the cells sit in hood for 30 min. (Cell culture medium: DMEM+10% FBS). • 2. Put the cell culture plates in TC incubator (5% CO2, 37° C.) and incubate overnight. • 3. Take out the cell plates and wash with prewarmed KRH buffer (37° C.) three times using BioTek plate washer. (KRH buffer preparation: 136 mM NaCl, 4.7 mM KCl, 1.25 mM MgCl2, 1.2 mM CaCl2), 20 mM HEPES, 0.1 mg/ml sodium pyruvate, 0.1% BSA, pH 7.4). • 4. Compound preparation and treatment: • a) Add 12 ul compound stock in 100% DMSO to the first column of Echo LDV plate • b) Serially dilute the compound solution in 100% DMSO (4 uL+8 uL DMSO) using Bravo for 9 doses • c) Dispense 350 nL compounds using Echo to the working plate. • d) i) Without compound preincubation condition, dispense 116 uL KRH buffer containing tritiated 2-deoxy-D-glucose (3H-2DG) and 2-deoxy-D-glucose (2DG) to the working plate and mix. • ii. With compound preincubation condition, dispense 110 uL KRH buffer only to the working plates and mix • e) Keep the compound working plate at 37° C. incubator until use • 5. Discard the KRH buffer (cells were kept in KRH buffer for 10-15 min before 2-DG addition) and transfer 100 uL compound working solution out to the cell culture plate using Bravo. Incubate for 20 mins at 37° C. (2DG final at 0.2 mM, 3H-2DG at 10 uCi/mL). • 6. Add prewarmed 50 uL KRH buffer (37° C.) containing 60 mM cold 2DG to the wells to stop the 2DG uptake using Multidrop combi • 7. Wash the cells with prewarmed PBS three times using BioTek plate washer • 8. Add 50 uL lysis buffer (0.1 M NaOH) into the assay plate to lyse the cells using Bravo and shake at 800 rpm for 30 min. • 9. Mix and transfer 20 uL lysate to a new white plate (Corning, #3610) and add 200 uL MicroScint-20 using Bravo • 10. Shake the plate at 1000 rpm for 30 min and count in a MicroBeta plate reader.

Setting [4] is: Homo sapiens, MCF7, 2 hours compound incubation.

This passage reports IC50 results from patent publication US10844013B2, “Phenyl amino piperidine mTORC inhibitors and uses thereof” (Navitor Pharmaceuticals, Inc., priority 2016, dated 2020).

pIC50: −log10 of the molar value. Counter-ions that a name gives are not always drawn. Like-named read-outs stand apart in the source and are kept apart here.

As to `Cc1ccc(C(=O)N2CCN(c3cccnc3S(N)(=O)=O)CC2)c(C)c1NC1CCN(c2ccccc2C#N)CC1` [I-121, 3-(4-(3-(1-(2-cyanophenyl)piperidin-4-ylamino)-2,4-dimethylbenzoyl)piperazin-1-yl)pyridine-2-sulfonamide], the pIC50 – broadly, the IC50 on a negative log10 scale, so that one unit is a factor of ten – in test [1] (setting [4]) was less than 5.00; in test [2], 6.00 to 8.00; in test [3], 6.00 to 8.00.
As for `Cc1cc(C)c(C(=O)N2CCN(c3cccc(F)c3[S@](C)(=N)=O)C[C@@H]2C)c(C)c1NC1CCN(c2ccccc2C#N)CC1` [I-192, 2-(4-(3-((2S)-4-(3-fluoro-2-(S-methylsulfonimidoyl)phenyl)-2-methylpiperazine-1-carbonyl)-2,4,6-trimethylphenylamino)piperidin-1-yl)benzonitrile], the pIC50 in test [3] was 6.00 to 8.00.
Regarding `Cc1cc(C)c(C(=O)N2CCN(c3cccnc3[S@](C)(=N)=O)CC2)c(C)c1NC1CCN(c2ncccc2Cl)CC1` (stereo in doubt) [I-176, (3-(4-(3-((1-(3-chloropyridin-2-yl)piperidin-4-yl)amino)-2,4,6-trimethylbenzoyl)piperazin-1-yl)pyridin-2-yl)(imino)(methyl)-16-sulfanone Trifluoroacetate Salt], the pIC50 was less than 5.00 in test [1] (2 hours compound incubation, read-out: pAKT in MCF7: IC50) and 6.00 to 8.00 in test [3].
As to `Cc1cc(C)c(C(=O)N2CCN(c3ccccc3)[C@@H](CO)C2)cc1NC1CCN(c2ccccc2C#N)CC1` (single isomer, unassigned) [I-41, 2-[4-({5-[3R or S-(hydroxymethyl)-4-phenylpiperazine-1-carbonyl]-2,4-dimethylphenyl}amino)piperidin-1-yl]benzonitrile], the negative-log IC50 (pIC50) in test [1] (setting [4]) is less than 5.00; in test [2], 5.52 to 6.00.
The matching figures for `Cc1cc(C)c(C(=O)N2CCN(c3c(F)cc(F)cc3S(N)(=O)=O)CC2)cc1NC1CCN(c2ccccc2C#N)CC1` [I-174, 2-(4-(5-((1-(2-cyanophenyl)piperidin-4-yl)amino)-2,4-dimethylbenzoyl)piperazin-1-yl)-3,5-difluorobenzenesulfonamide]: less than 5.00 and 6.00 to 8.00.
The like results for `Cc1cc(C)c(C(=O)N2CCN(c3cccc(F)c3[S@](C)(=N)=O)CC2)cc1NC1CCN(c2ccccc2C#N)CC1` (single isomer, unassigned) [I-89] were, in that order, less than 5.00 and 6.00 to 8.00.
As for `Cc1cccc(N2CCN(C(=O)c3cc(NC4CCN(c5ccccc5C#N)CC4)c(C)cc3C)C[C@@H]2CO)n1` [I-101, (R)-2-(4-(5-(3-(Hydroxymethyl)-4-(6-methylpyridin-2-yl)piperazine-1-carbonyl)-2,4-dimethylphenylamino)piperidin-1-yl)benzonitrile], the results for the negative logarithm of the IC50 (pIC50) in test [1] (setting [4]) and in test [2] were less than 5.00 and 5.52 to 6.00, respectively.
The like results for `Cc1cc(C)c(C(=O)N2CCN(C(=O)OC(C)(C)C)[C@@H](CO)C2)cc1NC1CCN(c2ccccc2C#N)CC1` [I-7, (R)-tert-Butyl 4-(5-(1-(2-cyanophenyl)piperidin-4-ylamino)-2,4-dimethylbenzoyl)-2-(hydroxymethyl) piperazine-1-carboxylate] were, in that order, less than 5.00 and 5.52 to 6.00.
The like results for `CNC(=O)c1ccccc1N1CCN(C(=O)c2cc(NC3CCN(c4ccccc4C#N)CC3)c(C)cc2C)C[C@@H]1CO` (single isomer, unassigned) [I-133] were, in that order, less than 5.00 and 5.52 to 6.00.
In the case of `Cc1cc(C)c(C(=O)N2CCN(c3nnco3)[C@H](CO)C2)cc1NC1CCN(c2ccccc2C#N)CC1` [I-177, (S)-2-(4-((5-(3-(hydroxymethyl)-4-(1,3,4-oxadiazol-2-yl)piperazine-1-carbonyl)-2,4-dimethylphenyl)amino)piperidin-1-yl)benzonitrile], the pIC50 was less than 5.00 in test [1] (setting [4]) and 5.52 to 6.00 in test [2].
As to `Cc1nc(C)c(C(=O)N2CCN(c3ccccc3)[C@H](CO)C2)c(C)c1NC1CCN(c2ccccn2)CC1` [I-155, [(2S)-1-phenyl-4-(2,4,6-trimethyl-5-{[1-(pyridin-2-yl)piperidin-4-yl]amino}pyridine-3-carbonyl)piperazin-2-yl]MeOH], the figures for the negative logarithm of the IC50 (pIC50) in test [1] (setting [4]) and in test [2] were less than 5.00 and 5.52 to 6.00, respectively.
As to `Cc1cc(C)c(C(=O)N2CCN(c3ccccc3)[C@H](CO)C2)c(C)c1NC1CCN(c2ccc(F)cn2)CC1` [I-145, [(2S)-4-(3-{[1-(5-fluoropyridin-2-yl)piperidin-4-yl]amino}-2,4,6-trimethyl-benzoyl)-1-phenyl-piperazin-2-yl]MeOH], the pIC50 is less than 5.00 in test [1] (setting [4]) and 6.00 to 8.00 in test [2].
The like results for `Cc1cc(C)c(C(=O)N2CCN(c3cccnc3S(N)(=O)=O)CC2)c(C)c1NC1CCN(c2ncccc2Cl)CC1` [I-185, 3-(4-(3-(1-(3-chloropyridin-2-yl)piperidin-4-ylamino)-2,4,6-trimethylbenzoyl)piperazin-1-yl)pyridine-2-sulfonamide] were, in that order, less than 5.00 and 6.00 to 8.00.
Take `Cc1cc(C)c(C(=O)N2CCN(c3ccccc3)[C@H](C(N)=O)C2)c(C)c1NC1CCN(c2cnccn2)CC1` [I-150, (2S)-1-phenyl-4-(2,4,6-trimethyl-3-{[1-(pyrazin-2-yl)piperidin-4-yl]amino}benzoyl) piperazine-2-carboxamide]: the negative logarithm of the IC50 (pIC50) in test [1] (setting [4]) is less than 5.00; in test [2], 6.00 to 8.00.
Consider `Cc1cc(C)c(C(=O)N2CCN(c3ccccc3C#N)[C@@H](CO)C2)cc1NC1CCN(c2ccccc2C#N)CC1` [I-53], for which the results for the pIC50 in test [1] (setting [4]) and in test [2] were less than 5.00 and 6.00 to 8.00, respectively.
On to `Cc1cc(C)c(C(=O)N2CCN(c3ccc(F)cn3)[C@H](CO)C2)c(C)c1NC1CCN(c2ccc(F)cn2)CC1` [I-146, [(3S)-4-(5-Fluoro-2-pyridyl)-3-(hydroxymethyl)piperazin-1-yl]-[3-[[1-(5-fluoro-2-pyridyl)-4-piperidyl]amino]-2,4,6-trimethyl-phenyl]methanone], for which the pIC50 in test [1] (setting [4]) and in test [2] was 6.00 to 8.00 each time.
As for `Cc1cc(C)c(C(=O)N2CCN(c3ccccc3S(N)(=O)=O)CC2)cc1NC1CCN(c2ccccc2C#N)CC1` [I-67], the pIC50 in test [1] (setting [4]) is less than 5.00; in test [2] it was 6.00 to 8.00.
The like results for `CNC(=O)c1ccccc1N1CCN(C(=O)c2cc(NC3CCN(c4ccccc4C#N)CC3)c(C)cc2C)CC1` [I-64] were, in that order, less than 5.00 and 6.00 to 8.00.
For `Cc1cc(C)c(C(=O)N2CCN(c3ccccc3)C(C(N)=O)C2)c(C)c1NC1CCN(c2ccc(F)cc2C#N)CC1` (stereo not shown) [I-142, 4-(3-{[1-(2-cyano-4-fluorophenyl)piperidin-4-yl]amino}-2,4,6-trimethyl-benzoyl)-1-phenyl-piperazine-2-carboxamide], the results for the negative-log IC50 (pIC50) in test [1] (setting [4]) and in test [2] were less than 5.00 and 6.00 to 8.00, respectively.
The matching figures for `Cc1cc(C)c(C(=O)N2CCN(c3ncccc3S(N)(=O)=O)CC2)c(C)c1N[C@@H]1CCN(c2ccccc2C#N)C[C@@H]1C` [I-179, 2-(4-(3-(((3S,4R)-1-(2-cyanophenyl)-3-methylpiperidin-4-yl)amino)-2,4,6-trimethylbenzoyl)piperazin-1-yl)pyridine-3-sulfonamide]: less than 5.00 and 6.00 to 8.00.
The matching figures for `Cc1cc(C)c(C(=O)N2CCN(c3ccc(F)cn3)[C@H](CO)C2)c(C)c1NC1CCN(c2cnccn2)CC1` [I-148, [(3S)-4-(5-Fluoro-2-pyridyl)-3-(hydroxymethyl)piperazin-1-yl]-[2,4,6-trimethyl-3-[(1-pyrazin-2-yl-4-piperidyl)amino]phenyl]methanone]: less than 5.00 and 6.00 to 8.00.
The matching figures for `Cc1cc(C)c(C(=O)N2CCN(c3ccccc3S(N)(=O)=O)CC2)c(C)c1NC1CCN(c2ccccc2C#N)CC1` [I-42]: less than 5.00 and 6.00 to 8.00.
For `Cc1nc(C)c(C(=O)N2CCN(c3ccccc3C#N)CC2)cc1NC1CCN(c2ccccc2C#N)CC1` [I-13, 2-(4-(5-(4-(2-Cyanophenyl)piperazine-1-carbonyl)-2,6-dimethylpyridin-3-ylamino)piperidin-1-yl)benzonitrile], the values for the pIC50 in test [1] (setting [4]) and in test [2] were less than 5.00 and 5.30 to 5.52, respectively.
